Measurements: patent US12162820B2 (TAIWANJ PHARMACEUTICALS CO., LTD., priority 2019, dated 2024)

How the values were obtained:
Assay type in all cases: biochemical
[1] = molecular target: T1, HDAC3 (Homo sapiens, UniProt O15379); assay: HDAC Inhibition Screening Assay (FLUOR DE LYS Fluorimetric Drug Discovery Kit), HDAC3; settings: for inhibition at 2 µM: 2 μM compound; for inhibition at 10 µM: 10 μM compound; for inhibition at 50 µM: 50 μM compound
T1 construct: purchased Enzo Life Sciences
How it was run: (§1)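 Compounds at 2 μM, 10 μM and 50 μM were each tested against HDAC1, HDAC2 and HDAC3 using a two-step fluorimetric assay. Results are given as percent of basal control after baseline subtraction.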

[2] = molecular target: T2, HDAC1 (Homo sapiens, UniProt Q13547); assay: HDAC Inhibition Screening Assay (FLUOR DE LYS Fluorimetric Drug Discovery Kit), HDAC1; settings: for inhibition at 2 µM: 2 μM compound; for inhibition at 10 µM: 10 μM compound; for inhibition at 50 µM: 50 μM compound
T2 construct: purchased Enzo Life Sciences
How it was run: as §1

[3] = molecular target: T3, ATX (autotaxin) (Homo sapiens, UniProt Q13822); assay: Autotaxin Inhibition Screening Assay (choline release from LPC, LPC-CR); settings: for inhibition at 4 µM: 4 μM compound; for inhibition at 20 µM: 20 μM compound; for inhibition at 50 µM: 50 μM compound
T3 construct: purchased Cayman 10803
How it was run: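 Released choline from 100 μM 14:0 LPC, detected via choline oxidase–HRP–homovanillic acid fluorescence (320/450 nm) kinetically over 90 min, reports activity of 20 ng ATX. Buffer: 50 mM Tris pH 8.0, 50 mM CaCl2, 0.01% Triton X-100; test compounds 4, 20, 50 μM; percent inhibition from blank-subtracted slopes relative to vehicle.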

[4] = molecular target: T4, HDAC2 (Homo sapiens, UniProt Q92769); assay: HDAC Inhibition Screening Assay (FLUOR DE LYS Fluorimetric Drug Discovery Kit), HDAC2; settings: for inhibition at 2 µM: 2 μM compound; for inhibition at 10 µM: 10 μM compound; for inhibition at 50 µM: 50 μM compound
T4 construct: purchased Enzo Life Sciences
How it was run: as §1

T2 sequence (Q13547 whole entry): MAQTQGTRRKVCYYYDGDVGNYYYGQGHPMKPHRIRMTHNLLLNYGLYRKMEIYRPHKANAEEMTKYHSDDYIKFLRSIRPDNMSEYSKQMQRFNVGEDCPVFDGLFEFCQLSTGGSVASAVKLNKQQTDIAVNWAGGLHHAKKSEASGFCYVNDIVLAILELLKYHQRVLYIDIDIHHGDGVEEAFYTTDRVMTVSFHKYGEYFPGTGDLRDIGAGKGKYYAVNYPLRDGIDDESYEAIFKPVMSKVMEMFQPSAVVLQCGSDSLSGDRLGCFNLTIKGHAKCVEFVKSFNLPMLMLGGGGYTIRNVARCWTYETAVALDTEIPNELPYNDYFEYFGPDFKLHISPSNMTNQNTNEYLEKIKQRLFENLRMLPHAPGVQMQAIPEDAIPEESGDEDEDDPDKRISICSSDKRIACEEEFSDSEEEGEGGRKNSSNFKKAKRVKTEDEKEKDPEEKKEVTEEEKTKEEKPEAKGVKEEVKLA
T1 sequence (O15379 whole entry): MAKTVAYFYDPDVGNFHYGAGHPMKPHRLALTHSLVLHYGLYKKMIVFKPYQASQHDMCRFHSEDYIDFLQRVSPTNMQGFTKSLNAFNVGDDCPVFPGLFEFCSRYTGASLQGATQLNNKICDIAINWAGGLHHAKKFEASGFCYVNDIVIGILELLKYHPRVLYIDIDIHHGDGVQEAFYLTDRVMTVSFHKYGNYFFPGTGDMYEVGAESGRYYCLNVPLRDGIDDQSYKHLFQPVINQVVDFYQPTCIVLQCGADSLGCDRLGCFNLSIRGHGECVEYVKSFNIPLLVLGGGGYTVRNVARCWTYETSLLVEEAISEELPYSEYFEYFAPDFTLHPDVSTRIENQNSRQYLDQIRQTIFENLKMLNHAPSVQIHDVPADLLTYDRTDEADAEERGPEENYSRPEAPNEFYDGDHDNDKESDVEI
T1 sequence (O75376 395-489 partner limits assumed): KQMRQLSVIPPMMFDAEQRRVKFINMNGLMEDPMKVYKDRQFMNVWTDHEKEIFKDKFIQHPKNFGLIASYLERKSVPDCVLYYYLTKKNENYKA
T4 sequence (Q92769 whole entry): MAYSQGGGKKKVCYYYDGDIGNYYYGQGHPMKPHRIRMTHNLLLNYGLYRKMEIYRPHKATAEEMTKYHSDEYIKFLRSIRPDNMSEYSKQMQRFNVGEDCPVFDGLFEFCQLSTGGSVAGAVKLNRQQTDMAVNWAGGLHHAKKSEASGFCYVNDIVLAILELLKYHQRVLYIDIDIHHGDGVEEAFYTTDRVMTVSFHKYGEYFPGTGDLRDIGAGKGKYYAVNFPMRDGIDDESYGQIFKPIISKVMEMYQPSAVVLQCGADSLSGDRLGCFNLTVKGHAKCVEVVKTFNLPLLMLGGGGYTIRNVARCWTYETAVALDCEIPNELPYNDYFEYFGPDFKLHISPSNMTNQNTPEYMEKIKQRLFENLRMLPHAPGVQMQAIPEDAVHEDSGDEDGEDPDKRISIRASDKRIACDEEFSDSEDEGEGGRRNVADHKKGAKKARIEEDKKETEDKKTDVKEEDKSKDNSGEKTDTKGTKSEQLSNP

SMILES | inhibition at 2 µM [1] | inhibition at 10 µM [1] | inhibition at 50 µM [1] | inhibition at 2 µM [2] | inhibition at 10 µM [2] | inhibition at 50 µM [2] | inhibition at 4 µM [3] | inhibition at 20 µM [3] | inhibition at 50 µM [3] | inhibition at 2 µM [4] | inhibition at 10 µM [4] | inhibition at 50 µM [4]
Nc1cc(F)ccc1NC(=O)CCCCCCC(=O)NC1CCc2cc(Br)ccc21 (stereo not drawn) [Compound 39, N^1-(2-amino-4-fluorophenyl)-N8-(5-bromo-2,3-dihydro-1H-inden-1-yl)octanediamide] | < 50% | 50 to 80% | 50 to 80% | < 50% | < 50% | < 50% | < 50% | < 50% | < 50% | < 50% | < 50% | < 50%
O=C(CCCCCCC(=O)NC1CCc2cc(Br)ccc21)NO (stereo not drawn) [Compound 40, N1-(5-bromo-2,3-dihydro-1H-inden-1-yl)-N8-hydroxyoctanediamide] | > 80% | > 80% | > 80% | 50 to 80% | > 80% | > 80% | < 50% | < 50% | < 50% | > 80% | > 80% | > 80%
Nc1cc(F)ccc1NC(=O)CCCCCCC(=O)NC1CCc2cc(/C=C/C(=O)Nc3cc(Cl)cc(Cl)c3)ccc21 (stereo not drawn) [Compound 41] | < 50% | < 50% | < 50% | < 50% | < 50% | < 50% | < 50% | < 50% | < 50% | < 50% | < 50% | < 50%
O=C(/C=C/c1ccc2c(c1)CCC2NC(=O)CCCCCCC(=O)NO)Nc1cc(Cl)cc(Cl)c1 (stereo not drawn) [Compound 42, (E)-N^1-(5-(3-((3,5-dichlorophenyl)amino)-3-oxoprop-1-en-1-yl)-2,3-dihydro-1H-inden-1-yl)-N^8-hydroxyoctanediamide] | 50 to 80% | > 80% | 50 to 80% | < 50% | 50 to 80% | > 80% | < 50% | < 50% | > 80% | 50 to 80% | 50 to 80% | > 80%
COc1ccc2c(c1)CCC2NC(=O)CCCCCCC(=O)Nc1ccc(F)cc1N (stereo not drawn) [Compound 43, N1-(2-amino-4-fluorophenyl)-N8-(5-methoxy-2,3-dihydro-1H-inden-1-yl)octanediamide] | < 50% | 50 to 80% | 50 to 80% | < 50% | < 50% | < 50% | < 50% | < 50% | < 50% | < 50% | < 50% | 50 to 80%
COc1ccc2c(c1)CCC2NC(=O)CCCCCCC(=O)NO (stereo not drawn) [Compound 44] | 50 to 80% | > 80% | > 80% | 50 to 80% | > 80% | > 80% | < 50% | < 50% | < 50% | 50 to 80% | > 80% | > 80%
O=C(CCCCCN(CC(=O)NC1CCc2ccccc21)CC(=O)NC1CCc2ccccc21)NO (stereo not drawn) [Compound 45, 2,2′-((6-(hydroxyamino)-6-oxohexyl)azanediyl)bis(N-(2,3-dihydro-1H-inden-1-yl)acetamide)] | > 80% | > 80% | > 80% | > 80% | > 80% | > 80% | < 50% | < 50% | < 50% | > 80% | > 80% | > 80%
O=C(CCCCCCC(=O)NC1CCCc2cc(Br)ccc21)NO (stereo not drawn) [Compound 46, N1-(6-bromo-1,2,3,4-tetrahydronaphthalen-1-yl)-N8-hydroxyoctanediamide] | < 50% | < 50% | 50 to 80% | < 50% | 50 to 80% | 50 to 80% | < 50% | < 50% | < 50% | < 50% | 50 to 80% | > 80%
COc1ccc2c(c1)CCCC2NC(=O)CCCCCCC(=O)Nc1ccc(F)cc1N (stereo not drawn) [Compound 47, N1-(2-amino-4-fluorophenyl)-N8-(6-methoxy-1,2,3,4-tetrahydronaphthalen-1-yl)octanediamide] | 50 to 80% | 50 to 80% | > 80% | < 50% | < 50% | < 50% | < 50% | < 50% | < 50% | < 50% | 50 to 80% | 50 to 80%
COc1ccc2c(c1)CCCC2NC(=O)CCCCCCC(=O)NO (stereo not drawn) [Compound 48, N^1-hydroxy-N^8-(6-methoxy-1,2,3,4-tetrahydronaphthalen-1-yl)octanediamide] | > 80% | > 80% | > 80% | > 80% | > 80% | > 80% | < 50% | < 50% | < 50% | > 80% | > 80% | > 80%
Nc1cc(F)ccc1NC(=O)/C=C/c1ccc2c(c1)CCC2NCCC(=O)Nc1cc(C(F)(F)F)cc(C(F)(F)F)c1 (stereo not drawn) [Compound 49, (E)-N-(2-amino-4-fluorophenyl)-3-(1-((3-((3,5-bis(trifluoromethyl)phenyl)amino)-3-oxopropyl)amino)-2,3-dihydro-1H-inden-5-yl)acrylamide] | < 50% | < 50% | 50 to 80% | < 50% | < 50% | < 50% | < 50% | < 50% | < 50% | < 50% | < 50% | 50 to 80%
O=C(/C=C/c1ccc2c(c1)CCC2NCCC(=O)Nc1cc(C(F)(F)F)cc(C(F)(F)F)c1)NO (stereo not drawn) [Compound 50, (E)-3-(1-((3-((3,5-bis(trifluoromethyl)phenyl)amino)-3-oxopropyl)amino)-2,3-dihydro-1H-inden-5-yl)-N-hydroxyacrylamide] | > 80% | > 80% | > 80% | > 80% | > 80% | > 80% | < 50% | < 50% | < 50% | > 80% | > 80% | > 80%
